What was measured:
[1] = tested on: uptake of dopamine by the corpus striatum; test: inhibition of uptake of labelled dopamine by rat corpus striatum homogenate (procedure of Coyle et al); assay type: biochemical; conditions: for Ratio Hypothalmus/Striatum: ratio of ID50 values, hypothalamus over striatum
Method: (§1) Many compounds which are active in the central nervous system of mammals appear to inhibit the uptake of catecholamines by mammalian brain tissues. […] The compounds of the invention have the ability of selectively inhibiting the uptake of dopamine by the corpus striatum. This ability was measured by a test procedure following that of Coyle et al supra. Rat brain slices from the corpus striatum and hypothalamus are separately homogenized and incubated with predetermined amounts of labelled norepinephrine or dopamine and a compound of the invention. After a suitable incubation period the amount of labelled catecholamine taken up by the brain homogenate is determined.

[2] = tested on: uptake of norepinephrine by the hypothalamus; test: inhibition of uptake of labelled norepinephrine by rat hypothalamus homogenate (procedure of Coyle et al); assay type: biochemical
Method: as §1

SMILES	inhibiting the uptake of dopamine, selectivity in words ([1]; dopamine versus norepinephrine uptake)	Ratio Hypothalmus/Striatum [1]	inhibiting the uptake of norepinephrine, in words [2]
c1ccc2c(c1)CCc1ccccc1C2=NCC1CC1 [Example 1, N-cyclopropylmethyl-10,11-dihydro-5H-dibenzo[a,d]cyclohepten-5-imine]	almost exclusive effect inhibiting the uptake of dopamine	20	without significantly inhibiting the uptake of norepinephrine
CC(C)=C1CC(CN=C2c3ccccc3CCc3ccccc32)C1 (stereo not shown) [Example 5, N-(3-Isopropylidenecyclobutylmethyl)-10,11-dihydro[a,d]cyclohepten-5-imine]	–	1.25	–
Clc1ccc2c(c1)C(=NCC1CC1)c1ccccc1CC2 [Example 4, 3-Chloro-N-cyclopropylmethyl-10,11-dihydro-5H-dibenzocyclohepten-5-imine]	–	2	–
c1ccc2c(c1)CCc1ccccc1C2=NC1CC1 [Example 2, N-Cyclopropyl-10,11-dihydro-5H-dibenzo[a,d]cyclohepten-5-imine]	–	> 6	–
CC(C)N=C1c2ccccc2CCc2ccccc21 [Isopropyl, reference compound]	–	0.25	–

Source: US3954865A, “N-cycloalkyl substituted-10,11-dihydro 5H-dibenzo[a,d] cyclohepten-5-imines” (E. I. Du Pont de Nemours and Company, priority 1974, dated 1976)
